Measured values as given in BindingDB's records for doi:10.1021/jm010237l (Abbott Laboratories, 2001).
pIC50: −log10 of the molar value.

Molecular target: Endothelin receptor type B (Sus scrofa) (UniProt P35463)
Assay: Binding affinity against endothelin B receptor in porcine cerebellar tissue

Chain of Endothelin receptor type B (Sus scrofa) (P35463 whole entry, looked up): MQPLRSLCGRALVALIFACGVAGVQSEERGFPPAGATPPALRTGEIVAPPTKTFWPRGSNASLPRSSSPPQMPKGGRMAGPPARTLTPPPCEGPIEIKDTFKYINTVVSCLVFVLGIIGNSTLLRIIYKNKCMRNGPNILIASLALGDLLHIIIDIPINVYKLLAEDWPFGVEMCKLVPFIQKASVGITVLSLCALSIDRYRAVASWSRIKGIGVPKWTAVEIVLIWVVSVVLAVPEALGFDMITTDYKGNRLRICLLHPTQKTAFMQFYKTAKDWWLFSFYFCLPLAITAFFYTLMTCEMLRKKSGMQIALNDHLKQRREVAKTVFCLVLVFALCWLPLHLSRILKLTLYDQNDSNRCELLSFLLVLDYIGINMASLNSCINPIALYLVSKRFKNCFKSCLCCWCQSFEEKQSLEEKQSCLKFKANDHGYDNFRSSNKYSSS

SMILES | pIC50
CCCCN(CCCC)C(=O)CN1C[C@H](c2ccc3c(c2)OCCO3)[C@@H](C(=O)O)[C@@H]1c1ccc(CC)cc1 [1-Dibutylcarbamoylmethyl-4-(2,3-dihydro-benzo[1,4]dioxin-6-yl)-2-(4-ethyl-phenyl)-pyrrolidine-3-carboxylic acid] | 5.11
CCCCN(CCCC)C(=O)CN1C[C@H](c2ccc3c(c2)CCO3)[C@@H](C(=O)O)[C@@H]1c1ccc(OC)cc1 [(2R,3R,4S)-1-Dibutylcarbamoylmethyl-4-(2,3-dihydro-benzofuran-5-yl)-2-(4-methoxy-phenyl)-pyrrolidine-3-carboxylic acid] | 5.57
CCCCN(CCCC)C(=O)CN1C[C@H](c2ccc3c(c2)OCO3)[C@@H](C(=O)O)[C@@H]1c1ccc(C)cc1 [4-Benzo[1,3]dioxol-5-yl-1-dibutylcarbamoylmethyl-2-p-tolyl-pyrrolidine-3-carboxylic acid] | 5.67
CCCCN(CCCC)C(=O)CN1C[C@H](c2ccc3c(c2)OCO3)[C@@H](C(=O)O)[C@@H]1c1ccc(OC)c(F)c1 [4-Benzo[1,3]dioxol-5-yl-1-dibutylcarbamoylmethyl-2-(3-fluoro-4-methoxy-phenyl)-pyrrolidine-3-carboxylic acid] | 7.52
CCCCN(CCCC)C(=O)CN1C[C@H](c2ccc3c(c2)OCC3)[C@@H](C(=O)O)[C@@H]1c1ccc(OC)cc1 [1-Dibutylcarbamoylmethyl-4-(2,3-dihydro-benzofuran-6-yl)-2-(4-methoxy-phenyl)-pyrrolidine-3-carboxylic acid] | 6.02
CCCCN(CCCC)C(=O)CN1C[C@H](c2ccc3c(c2)OCO3)[C@@H](C(=O)O)[C@@H]1c1ccc(F)c(F)c1 [4-Benzo[1,3]dioxol-5-yl-1-dibutylcarbamoylmethyl-2-(3,4-difluoro-phenyl)-pyrrolidine-3-carboxylic acid] | 5.98
CCCCN(CCCC)C(=O)CN1C[C@H](c2ccc3c(c2)CCO3)[C@@H](C(=O)O)[C@@H]1c1ccc(C)cc1 [1-Dibutylcarbamoylmethyl-4-(2,3-dihydro-benzofuran-5-yl)-2-p-tolyl-pyrrolidine-3-carboxylic acid] | 4.92
CCCCN(CCCC)C(=O)CN1C[C@H](c2ccc3c(c2)CCO3)[C@@H](C(=O)O)[C@@H]1c1ccc(CC)cc1 [1-Dibutylcarbamoylmethyl-4-(2,3-dihydro-benzofuran-5-yl)-2-(4-ethyl-phenyl)-pyrrolidine-3-carboxylic acid] | 5.09
CCCCN(CCCC)C(=O)CN1C[C@H](c2ccc3c(c2)OCO3)[C@@H](C(=O)O)[C@@H]1c1ccc(CC)cc1 [4-Benzo[1,3]dioxol-5-yl-1-dibutylcarbamoylmethyl-2-(4-ethyl-phenyl)-pyrrolidine-3-carboxylic acid] | 5.89

The remaining molecules from weak to strong by pIC50, led by results:

pIC50 | SMILES
4.84 | CCCCN(CCCC)C(=O)CN1C[C@H](c2ccc3c(c2)OCO3)[C@@H](C(=O)O)[C@@H]1c1ccc(C(F)(F)F)cc1 [4-Benzo[1,3]dioxol-5-yl-1-dibutylcarbamoylmethyl-2-(4-trifluoromethyl-phenyl)-pyrrolidine-3-carboxylic acid]
5.29 | CCCCN(CCCC)C(=O)CN1C[C@H](c2ccc3occc3c2)[C@@H](C(=O)O)[C@@H]1c1ccc(OC)cc1 [4-Benzofuran-5-yl-1-dibutylcarbamoylmethyl-2-(4-methoxy-phenyl)-pyrrolidine-3-carboxylic acid]
5.95 | CCCCN(CCCC)C(=O)CN1C[C@H](c2ccc3c(c2)OCO3)[C@@H](C(=O)O)[C@@H]1c1ccc(CCC)cc1 [4-Benzo[1,3]dioxol-5-yl-1-dibutylcarbamoylmethyl-2-(4-propyl-phenyl)-pyrrolidine-3-carboxylic acid]
6.52 | CCCCN(CCCC)C(=O)CN1C[C@H](c2ccc3c(c2)OCO3)[C@@H](C(=O)O)[C@@H]1c1ccc(OC)c(OC)c1 [4-Benzo[1,3]dioxol-5-yl-1-dibutylcarbamoylmethyl-2-(3,4-dimethoxy-phenyl)-pyrrolidine-3-carboxylic acid]
